Results reported in the supplement of paper PMC6045584.
± gives the standard deviation of the averaged measurements.

Key:
VISMODEGIB = compound: CS(=O)(=O)c1ccc(C(=O)Nc2ccc(Cl)c(-c3ccccn3)c2)c(Cl)c1 [VISMODEGIB]; assay: surviving fraction relative to DMSO-only wells; higher = less growth inhibition; conditions: exposure time: 5 days
Procedure, shortened: (§1)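 Viability was determined by CellTiter-Glo luminescence, expressed as surviving fraction normalised to the median of DMSO-only wells. The cells were log-phase tumour cell lines seeded at 250–500 per well in 384-well plates and, after 24 hours, exposed continuously for five days to inhibitors at 0.5, 1, 5, 10, 50, 100, 500 and 1000 nM. Three screens per line were run, keeping only lines with replicate Pearson r >0.7 and median Z' >0.3.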

RESVERATROL = compound: Oc1ccc(/C=C/c2cc(O)cc(O)c2)cc1 [RESVERATROL]; assay: as above; conditions: exposure time: 5 days
Procedure, shortened: as §1

| Test System | surviving fraction (VISMODEGIB; 0.5 nM) | surviving fraction (VISMODEGIB; 1 nM) | surviving fraction (VISMODEGIB; 5 nM) | surviving fraction (VISMODEGIB; 10 nM) | surviving fraction (VISMODEGIB; 50 nM) | surviving fraction (VISMODEGIB; 100 nM) | surviving fraction (VISMODEGIB; 500 nM) | surviving fraction (VISMODEGIB; 1000 nM) | surviving fraction (RESVERATROL; 0.5 nM) | surviving fraction (RESVERATROL; 1 nM) | surviving fraction (RESVERATROL; 5 nM) | surviving fraction (RESVERATROL; 10 nM) | surviving fraction (RESVERATROL; 50 nM) | surviving fraction (RESVERATROL; 100 nM) | surviving fraction (RESVERATROL; 500 nM) | surviving fraction (RESVERATROL; 1000 nM) |
| --- | --- | --- | --- | --- | --- | --- | --- | --- | --- | --- | --- | --- | --- | --- | --- | --- |
| 22RV1 PROSTATE | 1.01 ± 0.061 | 1.04 ± 0.029 | 0.962 ± 0.013 | 0.974 ± 0.0072 | 0.924 ± 0.037 | 1.102 ± 0.0057 | 1.04 ± 0.022 | 1.09 ± 0.068 | 1.01 ± 0.05 | 1.04 ± 0.076 | 1.05 ± 0.067 | 1.04 ± 0.024 | 0.981 ± 0.015 | 1.09 ± 0.032 | 0.961 ± 0.12 | 1.05 ± 0.079 |
| 93VU HEADNECK | 0.962 ± 0.03 | 1.08 ± 0.057 | 1.06 ± 0.03 | 1.02 ± 0.14 | 0.868 ± 0.025 | 0.964 ± 0.093 | 0.849 ± 0.061 | 0.915 ± 0.04 | 1.07 ± 0.11 | 1.07 ± 0.095 | 1.11 ± 0.065 | 1.14 ± 0.078 | 1.149 ± 0.0099 | 1.22 ± 0.16 | 1.1 ± 0.068 | 1.11 ± 0.15 |
| 143B BONE | 0.945 ± 0.063 | 0.98 ± 0.047 | 0.932 ± 0.1 | 0.993 ± 0.069 | 0.966 ± 0.042 | 0.965 ± 0.013 | 1.01 ± 0.046 | 1.01 ± 0.057 | 0.925 ± 0.14 | 1.07 ± 0.016 | 1.01 ± 0.021 | 1.065 ± 0.0021 | 0.885 ± 0.19 | 0.947 ± 0.17 | 1.01 ± 0.037 | 1.11 ± 0.057 |
| A549 LUNG | 0.979 ± 0.018 | 0.9893 ± 0.0035 | 1.01 ± 0.033 | 1.02 ± 0.045 | 0.994 ± 0.017 | 1.06 ± 0.035 | 1.01 ± 0.032 | 1.03 ± 0.069 | 1.03 ± 0.011 | 1.07 ± 0.043 | 1.05 ± 0.024 | 1.05 ± 0.026 | 1.04 ± 0.021 | 1.09 ± 0.06 | 1.07 ± 0.044 | 1.11 ± 0.062 |
| ASKA SYNOVIAL | 1.04 ± 0.03 | 1.07 ± 0.046 | 1.08 ± 0.086 | 1.11 ± 0.039 | 0.939 ± 0.03 | 0.964 ± 0.05 | 0.926 ± 0.048 | 0.951 ± 0.055 | 1.12 ± 0.019 | 1.15 ± 0.089 | 1.22 ± 0.077 | 1.25 ± 0.058 | 1.12 ± 0.13 | 1.22 ± 0.051 | 1.1 ± 0.072 | 1.13 ± 0.1 |
| BT20 BREAST | 1.08 ± 0.13 | 0.977 ± 0.039 | 1.01 ± 0.062 | 1.02 ± 0.048 | 0.964 ± 0.086 | 0.901 ± 0.058 | 0.898 ± 0.032 | 0.907 ± 0.11 | 1.05 ± 0.052 | 1.13 ± 0.1 | 1.13 ± 0.038 | 1.15 ± 0.059 | 1.06 ± 0.037 | 1.12 ± 0.078 | 1.12 ± 0.19 | 1.25 ± 0.12 |
| BT549 BREAST | 1.02 ± 0.047 | 1.01 ± 0.12 | 1.09 ± 0.15 | 1.09 ± 0.15 | 0.76 ± 0.23 | 0.799 ± 0.19 | 0.744 ± 0.071 | 0.75 ± 0.018 | 0.97 ± 0.081 | 1.1 ± 0.17 | 0.942 ± 0.14 | 1.09 ± 0.06 | 1.16 ± 0.038 | 1.01 ± 0.14 | 1.15 ± 0.047 | 1.12 ± 0.028 |
| C33A CERVIX | 0.872 ± 0.066 | 1.007 ± 0.0076 | 1.12 ± 0.087 | 0.985 ± 0.061 | 0.879 ± 0.066 | 1 ± 0.069 | 0.851 ± 0.055 | 0.953 ± 0.066 | 0.928 ± 0.045 | 0.933 ± 0.052 | 0.956 ± 0.14 | 0.998 ± 0.032 | 0.978 ± 0.028 | 0.974 ± 0.096 | 0.946 ± 0.023 | 0.958 ± 0.049 |
| CADOES1 SOFT TISSUE | 0.884 ± 0.024 | 0.935 ± 0.085 | 0.968 ± 0.1 | 0.914 ± 0.056 | 0.952 ± 0.047 | 1.05 ± 0.091 | 0.979 ± 0.056 | 0.964 ± 0.073 | 0.972 ± 0.09 | 0.939 ± 0.14 | 0.952 ± 0.047 | 0.931 ± 0.074 | 0.993 ± 0.023 | 1.02 ± 0.061 | 0.991 ± 0.017 | 1.02 ± 0.068 |
| CAL51 BREAST | 0.895 ± 0.042 | 0.923 ± 0.013 | 0.9295 ± 0.0062 | 0.931 ± 0.043 | 0.931 ± 0.056 | 0.975 ± 0.071 | 0.9558 ± 0.009 | 0.963 ± 0.01 | 0.901 ± 0.03 | 1.04 ± 0.033 | 1.07 ± 0.034 | 1.03 ± 0.038 | 1.04 ± 0.056 | 1.03 ± 0.028 | 1.02 ± 0.047 | 1.1 ± 0.043 |
| CAL72 BONE | 0.994 ± 0.016 | 1.01 ± 0.017 | 1.021 ± 0.0075 | 0.9987 ± 0.0091 | 0.919 ± 0.042 | 0.934 ± 0.025 | 0.922 ± 0.033 | 0.938 ± 0.037 | 1.07 ± 0.057 | 1.06 ± 0.084 | 1.05 ± 0.073 | 1.05 ± 0.12 | 1.05 ± 0.055 | 1.08 ± 0.1 | 1.04 ± 0.082 | 1.04 ± 0.12 |
| CAL120 BREAST | 0.987 ± 0.019 | 0.968 ± 0.018 | 0.999 ± 0.012 | 1 ± 0.012 | 0.997 ± 0.021 | 1.01 ± 0.013 | 0.942 ± 0.013 | 0.989 ± 0.016 | 0.966 ± 0.049 | 1.01 ± 0.059 | 0.975 ± 0.058 | 0.983 ± 0.069 | 1.02 ± 0.07 | 0.998 ± 0.043 | 1.04 ± 0.017 | 1.04 ± 0.056 |
| CASKI CERVIX | 0.939 ± 0.035 | 0.979 ± 0.026 | 0.958 ± 0.026 | 0.973 ± 0.046 | 0.828 ± 0.049 | 0.893 ± 0.058 | 0.876 ± 0.075 | 0.898 ± 0.084 | 0.938 ± 0.09 | 0.926 ± 0.033 | 0.959 ± 0.045 | 0.963 ± 0.049 | 1.03 ± 0.036 | 1.05 ± 0.099 | 0.993 ± 0.023 | 1.06 ± 0.041 |
| CHLA90 AUTONOMIC GANGLIA | 0.923 ± 0.084 | 0.949 ± 0.06 | 0.962 ± 0.056 | 1.01 ± 0.062 | 0.914 ± 0.079 | 0.925 ± 0.013 | 0.92 ± 0.028 | 0.953 ± 0.041 | 1.01 ± 0.075 | 0.996 ± 0.049 | 0.984 ± 0.024 | 1.03 ± 0.033 | 0.962 ± 0.056 | 1.07 ± 0.043 | 1.07 ± 0.064 | 1.08 ± 0.053 |
| CME SYNOVIAL | 1.24 ± 0.088 | 1.2 ± 0.12 | 1.2 ± 0.27 | 1.3 ± 0.16 | 1.07 ± 0.098 | 1.12 ± 0.13 | 1.03 ± 0.17 | 0.9627 ± 0.0064 | 1.23 ± 0.043 | 1.29 ± 0.045 | 1.4 ± 0.15 | 1.44 ± 0.15 | 1.37 ± 0.059 | 1.38 ± 0.14 | 1.33 ± 0.18 | 1.21 ± 0.039 |
| COLO320DM LARGE INTESTINE | 1.02 ± 0.063 | 1.03 ± 0.12 | 1.14 ± 0.081 | 1.06 ± 0.069 | 1.05 ± 0.094 | 1.02 ± 0.087 | 1.04 ± 0.092 | 0.977 ± 0.095 | 1.06 ± 0.14 | 1 ± 0.062 | 1.07 ± 0.081 | 1.07 ± 0.04 | 1.03 ± 0.063 | 1.15 ± 0.086 | 1.08 ± 0.077 | 1.12 ± 0.031 |
